Results as given in patent publication US7671112B2, “Method of making fluoropolymer dispersion” (priority 2005, dated 2010).
Marks after values point to notes of the source that are not given here.

Experiment: Determination of bio-accumulation: urinary clearance pharmacokinetic study in rats
Format: in vivo, male Sprague Dawley rats
Settings: oral gavage; for Compound-related Effects: clinical observation and gross necropsy 96 hours post-dose; for T½: elimination via urine, exponential least squares curve fitting of concentration in urine
[1] = 73 micro Moles per kg body weight
[2] = 73 micro Moles per kg body weight, recovered in urine up to 96 h
[3] = 73 micro Moles per kg, based on elimination of the major metabolite C3F7—O—CHFCOO−, no parent compound in urine

Row | SMILES | Compound-related Effects [1] | T½ [1] | % Recovery (96 h) [2] | % Recovery (96 h) [3] | T½ (h) [3]
1 | N.O=C(O)C(F)(F)C(F)(F)C(F)(F)C(F)(F)C(F)(F)OC(F)C(F)(F)F (centres unmarked) [Compound 14, CF3—CFH—O—(CF2)5—COONH4] | Hepatomegaly | 24 h | 32% | – | –
2 | N.O=C(O)C(F)(F)C(F)(F)OC(F)(F)C(F)(F)F [Compound 7, C2F5—O—CF2—CF2—COONH4] | – | 10 h | 100% | – | –
3 | N.O=C(O)C(F)(F)C(F)OC(F)(F)C(F)(F)C(F)(F)OC(F)(F)F (centres unmarked) [Compound 11, CF3—O—CF2—CF2—CF2—O—CHF—CF2—COONH4] | – | 12 h | 84% | – | –
4 | N.O=C(O)C(F)OC(F)(F)C(F)(F)C(F)(F)OC(F)(F)F (centres unmarked) [Compound 12, CF3—O—CF2—CF2—CF2—O—CHF—COONH4] | – | 11 h | 95% | – | –
5 | N.O=C(O)COC(F)(F)C(F)OC(F)(F)C(F)(F)C(F)(F)F (centres unmarked) [Compound 16, C3F7—O—CFH—CF2—O—CH2—COONH4] | – | – | – | 65* % | 13* h
6 | N.O=C(O)C(F)(F)C(F)(F)OC(F)(F)C(F)(F)C(F)(F)C(F)(F)F [Compound 9, C4F9—O—CF2—CF2—COONH4] | Hepatomegaly | 31 h | 42% | – | –
7 | N.O=C(O)C(F)(F)OC(F)(F)OC(F)(F)F [Compound 2, CF3—OCF2—O—CF2—COONH4] | – | 12 h | 96% | – | –
8 | N.O=C(O)C(F)(F)OC(F)(F)OC(F)(F)OC(F)(F)F [Compound 3, CF3—OCF2—OCF2—OCF2—COONH4] | – | 12 h | 100% | – | –
9 | N.O=C(O)C(F)(F)C(F)OC(F)(F)C(F)(F)C(F)(F)F (centres unmarked) [Compound 13, C3F7—O—CFH—CF2COONH4] | – | 11 h | 94% | – | –
10 | N.O=C(O)C(F)(F)OC(F)(F)C(F)(F)OC(F)(F)C(F)(F)F [Compound 10, C2F5—O—CF2—CF2—O—CF2—COONH4] | – | 10 h | 99% | – | –
11 | N.O=C(O)C(F)(F)OC(F)(F)C(F)(OC(F)(F)C(F)(F)C(F)(F)F)C(F)(F)F (centres unmarked) [Compound C-3, C3F7—O—CF(CF3)—CF2—O—CF2—COONH4, reference compound] | Hepatomegaly | 95 h | 5% | – | –
12 | N.O=C(O)C(F)(F)OC(F)(F)C(F)(F)C(F)(F)OC(F)(F)F [Compound 1, CF3—O—(CF2)3—O—CF2—COONH4] | – | – | 73% | – | –
13 | N.O=C(O)C(F)(F)OC(F)(F)C(F)(F)C(F)(F)F [Compound 5, C3F7—O—CF2—COONH4] | – | 11 h | 97% | – | –
14 | N.O=C(O)C(F)(F)C(F)(F)OC(F)(F)F [Compound 6, CF3—O—CF2—CF2—COONH4] | – | 11 h | 100% | – | –
15 | N.O=C(O)C(F)(F)C(F)(F)OC(F)(F)C(F)(F)C(F)(F)F [Compound 8, C3F7—O—CF2—CF2—COONH4] | – | 12 h | 82% | – | –
16 | N.O=C(O)C(F)(F)C(F)(F)C(F)(F)OC(F)C(F)(F)F (centres unmarked) [Compound 15, CF3—CFH—O—(CF2)3—COONH4] | – | 8 h | 95% | – | –
17 | N.O=C(O)C(F)(F)C(F)(F)C(F)(F)C(F)(F)C(F)(F)C(F)(F)C(F)(F)F [Compound C-1, C7F15COONH4, reference compound] | Hepatomegaly | ~550 h | 6% | – | –
18 | N.O=C(O)C(F)(F)OC(F)(F)C(F)(F)C(F)(F)OC(F)(F)F [Compound 4, CF3—(OCF2)3—OCF2—COONH4] | – | – | 50% | – | –
